Data on nine molecules can be found in publication PMC7389528, “Anti-tubercular derivatives of rhein require activation by the monoglyceride lipase Rv0183” (The Cell Surface, 2020).

What is called IC50 is the midpoint of a concentration-inhibition curve. The low end stands for greater potency, the high end for weaker potency.

SMILES strings stand for the structures. Converted amounts (≈) assume the structure as drawn. Like-named read-outs stand apart in the source and are kept apart here.

One series deals with Vero cells. The experiment in a line: cells. It counts as cell-based. Conditions: Chlorocebus sabaeus, MTT, cytotoxicity.
For series [1] the following is noted: 50 mM Tris pH 7.5, 200 mM NaCl, no enzyme, 37 °C, 1 h.
The subject of a further series is Mtb H37Rv. Description: microbe, parasite or virus in culture. It counts as cell-based. Conditions: Mycobacterium tuberculosis.
The nature of series [2]: Liver microsome stability assay, human. Format: in vitro ADME. Particulars: HLM, with NADPH, after 30 min, 1 μM compound. On the procedure: (§1) The assay was performed with liver microsomes from male CD-1 mouse (Xenotech) and pooled human (Bioreclamation). Compounds HTB-03, HTB-04 and HTB-05 were tested at 1 μM with a final concentration of microsomal protein of 1 mg/mL. The reaction was initiated by the addition of NADPH (1 mM), and samples were incubated for up to […] at 37 °C in a shaking incubator. The reaction was terminated at 0, 5, 15 and 30 min by the addition of ice-cold ACN/MeOH (50:50) spiked with internal standard. Samples were centrifuged at 4000 rpm at 4 °C for 15 min and the supernatants analyzed by LC-MS/MS. The assay evaluated the metabolic stability of compounds by measuring the amount of parent remaining to test compounds with or without NADPH cofactor. LC-MS/MS: AB Sciex 4500 Qtrap; Kinetex 2.6 μm C18 100 Å column (3.0 mm × 30 mm); mobile phase A, 0.1% formic acid in H2O; mobile phase B, 0.1% formic acid in ACN; flow rate, 0.8 mL/min; room temperature.
For orientation: Liver microsomes are a subcellular fraction often used to study metabolism.

The nature of series [3]: Liver microsome stability assay, mouse. Format: in vitro ADME, male CD-1 mouse. Conditions: MLM, with NADPH, after 30 min, 1 μM compound. The method, then: as §1
For series [4] the following is noted: 50 mM Tris pH 7.5, 200 mM NaCl, 2% DMSO.
The next series deals with Mtb. Details: method as in Gajadeera et al., 2015. Conditions: ref Gajadeera et al., 2015, cited from earlier work.

Turning to `CC(=O)Oc1cccc2c1C(=O)c1c(OC(C)=O)cc(C(=O)O)cc1C2=O` [Diacerein, diacerein, reference compound], the midpoint of inhibition in the series on Vero cells, the IC50, lay at 161 µM. For the same molecule, the “stability in the assay conditions (TLC)” value in series [1] was “degraded to rhein”. The MIC in the series on Mtb H37Rv was above 86.9 µM.

As for `COC(=O)c1cc(O)c2c(c1)C(=O)c1cccc(O)c1C2=O` [HTB-01], the IC50 with Vero cells is above 215 µM. In the series with Mtb H37Rv, this molecule registered an MIC of 6.37 µM (≈ 1.9 µg/mL).

With `COC(=O)c1cc(OC(C)=O)c2c(c1)C(=O)c1cccc(OC(C)=O)c1C2=O` [HTB-02], it took 15.5 µM to reach half-maximal inhibition in the series with Vero cells (IC50). The MIC with Mtb H37Rv is 5.13 µM (≈ 1.96 µg/mL).

`O=C(OCCCCCl)c1cc(O)c2c(c1)C(=O)c1cccc(O)c1C2=O` [HTB-03] showed an IC50 with Vero cells above 171 µM. Besides, in series [1], the “stability in the assay conditions (TLC)” value is given as “appeared stable”. Further, the Substrate remaining came out at 92.8% in series [2] and 66.3% in series [3]. The same molecule showed an MIC in the series with Mtb H37Rv of 2.56 µM (≈ 0.959 µg/mL).

In the series on Vero cells, `CC(=O)Oc1cccc2c1C(=O)c1c(OC(C)=O)cc(C(=O)OCCCCCl)cc1C2=O` [HTB-04] came in with an IC50 of 84 µM. Further, the values for the Substrate remaining in series [2] and in series [3] were 82.4% and 79.8%, respectively. Further, the MIC against Mtb H37Rv stood at 3.55 µM (≈ 1.63 µg/mL). The “solubility in the assay conditions” value in series [4] is recorded as “limited solubility”.

As to `CC1CCCC(C)C1OC(=O)c1cc(O)c2c(c1)C(=O)c1cccc(O)c1C2=O` (stereo not shown) [HTB-05], in the series on Vero cells, the IC50 was above 162 µM. Moreover, the Substrate remaining in series [2] came to 67.8%; in series [3], 42.9%. The molecule also gave an MIC in the series on Mtb H37Rv of 3.9 µM (≈ 1.54 µg/mL).

For the molecule `CC(=O)Oc1cccc2c1C(=O)c1c(OC(C)=O)cc(C(=O)OC3C(C)CCCC3C)cc1C2=O` (stereo not shown) [HTB-06], the IC50 in the series with Vero cells was 58.1 µM. In addition, in the series on Mtb H37Rv, the MIC turned out to be 7.31 µM (≈ 3.5 µg/mL).

Take `NNC(=O)c1ccncc1` [INH, isoniazid, reference compound]: in the series on Mtb H37Rv, the MIC amounted to 0.26 µM (≈ 0.0357 µg/mL).

For `O=C(O)c1cc(O)c2c(c1)C(=O)c1cccc(O)c1C2=O` [Rhein, rhein], in the series with Vero cells, half-maximal inhibition (IC50) was put at 182 µM. Besides, the anti-tubercular activity entry is given as “does not exhibit anti-tubercular activity” in the series on Mtb and “does not inhibit Mtb” in the series on Mtb (listed as rhein). The molecule further yielded an MIC with Mtb H37Rv of 106 µM (≈ 30.2 µg/mL).
